Experimental data as given in patent publication US7763610B2, “Carboxylic acid derived benzoxazines as agents for the treatment of respiratory diseases” (Ono Pharmaceutical Co., Ltd., priority 2003, dated 2010).

Biological target: T1, cysLT2 receptor (Homo sapiens, UniProt Q9NS75)
T1 construct: expressed in transfected cells; host or cells: HEK293
T1 sequence (Q9NS75 1-346): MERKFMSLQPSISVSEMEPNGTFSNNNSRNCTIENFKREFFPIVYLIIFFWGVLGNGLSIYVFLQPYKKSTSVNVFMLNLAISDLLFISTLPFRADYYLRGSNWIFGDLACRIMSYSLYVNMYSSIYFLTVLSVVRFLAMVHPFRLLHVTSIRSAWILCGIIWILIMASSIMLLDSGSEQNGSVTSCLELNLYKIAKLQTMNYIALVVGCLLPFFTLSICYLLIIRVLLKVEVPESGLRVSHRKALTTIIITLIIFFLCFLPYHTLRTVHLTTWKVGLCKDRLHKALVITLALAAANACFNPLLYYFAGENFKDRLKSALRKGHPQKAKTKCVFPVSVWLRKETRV
Experiment: Effect on LTD4-induced increase of intracellular calcium
Format: cell-based
Settings: HEK293 expression cells of cysLT2 receptor, 100 nM LTD4, compound 180 seconds before stimulation; read-out: IC50 value (50% inhibitory concentration, LTD4-induced intracellular calcium influx)
Experimental: Expression cells of cysLT2 receptor (HEK293) were seeded in a 96-well plate each containing 1×10^5 cells. The cells were cultured for 24 hours in a 5% CO2 at 37° C. using DMEM (Dulbecco's Modified Eagle Medium). The cells were incubated in 7.5 μM Fura2-AM, 20 mM HEPES (2-[4-(2-hydroxyethyl)-1-piperazinyl]ethanesulfonic acid) and 2.5 mM probenecid for approximately 30 minutes at 37° C. The cells with uptake of Fura2-AM were once washed with assay buffer (Hank's buffer containing 20 mM HEPES) and intracellular calcium influx induced by LTD4 was measured by FDSS2000 (Hamamatsu Photonics K.K.). The compound of the present invention was administered 180 seconds before LTD4 stimulation, and the reaction induced by 100 nM LTD4 was measured in time course for 90 seconds. The effect of the compound of the present invention was evaluated by maximum fluorescence intensity, and 50% inhibitory concentration (IC50) was calculated on each compound.

IC50 [nM] | SMILES
101 | O=C(O)CCC(=O)N1CC(c2nnn[nH]2)Oc2c(NC(=O)c3ccc(OCCCCc4ccccc4)cc3)cccc21 (centres unmarked) [Example 12]
30 | O=C(O)CCCN1CC(C(=O)O)Oc2c(OCc3ccc(OCCCCc4ccccc4)cc3)cccc21 (centres unmarked) [Example 25]
